Results reported in US20220289688A1, “RNA-TARGETING LIGANDS, COMPOSITIONS THEREOF, AND METHODS OF MAKING AND USING THE SAME” (THE UNIVERSITY OF NORTH CAROLINA AT CHAPEL HILL, priority 2019, published 2022).
Where “and” joins values, the source holds several entries; their conditions need not be identical. Equal values may be shown once. Entries after “also recorded” stand apart in the source; their conditions may differ. Read-outs that look alike come from different tables or passages of the source. Values belong to the molecule of their own block, whether it stands above or below them.

What was measured:
[1] = biological target: TPP riboswitch RNA; assay: Isothermal titration calorimetry (ITC), ligand titrated into RNA; format: binding; settings: for Kd / Binding affinity relative to a named comparator compound / Kd (μM): ITC; for Effect of modification on RNA binding affinity (FIG. 5): linked fragments 17 and 31, dissociation constants by ITC; for Binding affinity relative to a named comparator compound: comparator named in value
[2] = Solubility at concentrations required for ITC; format: physicochemical; settings: ITC buffer
Protocol: (§1) ITC experiments were performed using a Microcal PEAQ-ITC automated instrument (Malvern Analytical) under RNase-free conditions^41. In vitro transcribed RNA was exchanged into folding buffer containing 100 mM CHES, pH 8.0, 200 mM potassium acetate, and 3 mM MgCl2 using centrifugal concentration (Amicon Ultra centrifugal filters, 10K MWCO, Millipore-Sigma). Ligands were dissolved into the same buffer (to minimize heat of mixing upon addition of ligand to RNA) at a concentration 10-20 times the desired experimental concentration of RNA. RNA concentration was quantified (Nanodrop UV-VIS spectrometer; ThermoFisher Scientific), diluted to 1-10 times the expected […] in buffer, and the diluted RNA was re-quantified to confirm the final experimental RNA concentration. The RNA, diluted in folding buffer, was heated at 65° C. for 5 minutes, placed on ice for 5 minutes, and allowed to fold at 37° C. for 15 minutes. if needed, the primary binding ligand (for example, 2) was pre-bound to the RNA by adding 0.1 volume at 10 times the desired final concentration of the bound ligand, followed by incubation at room temperature for 10 minutes.

[3] = tested on: TPP riboswitch region of the screening construct; assay: SHAPE second-fragment screen of RNA construct pre-bound to primary fragment; format: binding; settings: RNA pre-bound to 2 or S12; fragment 1 mM
Protocol: For the first-fragment-ligand screen, 5 pmol of RNA per well were diluted to […] in RNase-free water on a 4° C. cooling block. The plate was heated at 95° C. for 2 minutes, immediately followed by snap cooling at 4° C. for 5 minutes. To each well was added 19.6 μL of 2× folding buffer (final concentrations 50 mM HEPES pH 8.0, 200 mM potassium acetate, and 10 mM MgCl2), and plates were incubated at 37° C. for 30 minutes. […] To combine the target RNA with fragment, 24.3 μL of RNA solution or RNA plus primary binding fragment were added to wells containing 2.7 μL of 10× screening fragments (in DMSO to yield a final fragment concentration of 1 mM). Solutions were mixed thoroughly by pipetting and incubated for 10 minutes at 37° C. […]
Once screening of test fragments is complete, statistical tests are carried out to identify differences in modification rates of a given nucleotide. […] That is, if m1 modifications of a tested nucleotide were counted among n1 reads in sample 1 and m2 modifications were counted among n2 reads in sample 2, the tested null hypothesis predicts that among all the counted modifications (m1+m2), the proportion of modifications in sample 1 will be p1=n1/(n1+n2). […]

[4] = tested on: 2-TPP RNA complex; assay: ITC with primary binding fragment pre-bound to the RNA; settings: for Binding cooperativity with 2: ITC in presence and absence of pre-bound 2; for Kd: ITC
Protocol: as §1
Each ITC experiment involved two runs: one in which the ligand was titrated into RNA (the experimental trace) and one in which the same ligand was titrated into buffer (the control trace). ITC experiments were performed using the following parameters: 25° C. cell temperature, 8 μCal/sec reference power, 750 RPM stirring speed, high feedback mode, 0.2 μL initial injection, followed by 19 injections of 2 μL. Each injection required 4 seconds to complete, and there was a 180-second spacing between injections.
ITC data was analyzed using MicroCal PEAQ-ITC Analysis Software (Malvern Analytical). First, the baseline for each injection peak was manually adjusted to resolve any incorrectly selected injection endpoints. Second, the control trace was subtracted from the experimental trace by point-to-point subtraction. Third, a least-squares regression line was fit to the data using the Levenberg-Marquardt algorithm. In the case of weakly binding ligands (>500 μM), N was manually set to 1.0 to enable fitting of low c-value curves.

[5] = primary-screen hits, Table 1, value ± error, read-out: Kd
[6] = fragment 2 analogs, pendant groups, Table 2B, read-out: Kd
[7] = no ligand pre-bound, Table 6, read-out: Kd (mM) No ligand bound
[8] = primary fragment pre-bound to TPP riboswitch RNA, Table 6, read-out: Kd (mM) 5 pre-bound
[9] = fragment 5 analogs, pendant groups, Table 4, read-out: Kd
[10] = fragment 5 analogs, pendant groups, Table 4

SMILES: C#Cc1ccc2nccnc2c1 [Compound 1]
Kd [1, 5]: 11 ± 0.2 µM

SMILES: Nc1ccc2nccnc2c1 [Compound 2]
Kd ([1]; fragment 2 analogs, quinoxaline core modifications, Table 2A, read-out: Kd): 25 µM | Kd [1, 5]: 25 ± 6 µM | Kd ([1]; read-out: Kd): 25 µM

SMILES: COC(=O)c1ccc(Cl)nc1 [Compound 5]
Kd [1, 5]: 265 ± 80 µM

SMILES: c1cc2[nH]cnc2cn1 [Compound 6]
Kd ([1]; fragment 5 analogs, pyridine core modifications, Table 3, read-out: Kd): 266 µM | Kd [1, 5]: 650 ± 100 µM

SMILES: O=C1CC(C(F)(F)F)=NN1 [Compound 7]
Solubility at concentrations required for ITC [2]: insoluble

SMILES: O=C(O)c1cncc(-c2cccs2)c1 [Compound 8]
Solubility at concentrations required for ITC [2]: insoluble

SMILES: O=Cc1ccc2nccnc2c1 [Compound 18]
Kd [1, 6]: 35 µM

SMILES: Nc1cccc2nccnc12 [Compound 21]
Kd [1, 6]: 75 µM

SMILES: Fc1cccc2nccnc12 [Compound 23]
Kd [1, 6]: 220 µM

SMILES: Cc1cc(N2CCNCC2)c2ccccc2n1 [Compound 28]
Solubility at concentrations required for ITC [2]: insoluble

SMILES: O=C(O)c1csc2ccc(Cl)cc12 [Compound 29]
SHAPE result of second-round screen [3]: caused changes in other areas of the RNA consistent with nonspecific interactions

SMILES: c1cc(N2CCNCC2)ccn1 [Compound 31]
Kd ([1]; fragment alone, read-out: Kd): 10000 µM and ≥ 10000 µM | Kd [1, 7]: > 10000 µM | Binding cooperativity with 2 [4]: clear, but modest, binding cooperativity with 2 | Kd ([4]; 2 pre-bound to the TPP riboswitch RNA, read-out: Kd): ~3 mM | Kd [4, 8]: 3 mM

SMILES: Cc1cnccc1N1CCNCC1 [Compound 32]
Kd [1, 7]: > 10000 µM | Binding cooperativity with 2 [4]: clear, but modest, binding cooperativity with 2 | Kd [4, 8]: 4 mM

SMILES: NCCCN1CCN(c2ccncc2)CC1 [Compound 33]
Kd [1, 7]: > 10000 µM

SMILES: Nc1cnccc1N1CCNCC1 [Compound 34]
Kd [1, 7]: > 10000 µM

SMILES: COC(=O)c1ccc([N+](=O)[O-])cc1 [compound 86]
Kd [1, 9]: 390 µM

SMILES: COC(=O)c1ccc(N)cc1 [compound 88]
Kd [1, 9]: 1100 µM

SMILES: COC(=O)c1ccc(Cl)cc1Cl [compound 812]
Binding affinity relative to a named comparator compound [1]: approximately threefold higher affinity for the TPP riboswitch than did fragment 5 | Kd [1, 9]: 93 µM

SMILES: CN(C)C(=O)c1ccc(Cl)cc1 [compound 818]
Kd (μM) [1, 10]: no binding

Now from value to molecule, other results behind:

Kd [1, 5]: 95 ± 3 µM
SMILES: COc1ccc2nsnc2c1 [Compound 3]

Kd [1, 5]: 220 ± 10 µM
SMILES: NCc1ccc(-c2csnn2)cc1 [Compound 4]

Kd [1, 5]: 0.029 ± 0.002 µM
SMILES: Cc1ncc(C[n+]2csc(CCOP(=O)([O-])OP(=O)(O)O)c2C)c(N)n1 [Compound 9, thiamine pyrophosphate, reference compound]

Kd [1, 6]: 18 µM
SMILES: OCc1ccc2nccnc2c1 [Compound 15]

Kd [1, 6]: 58 µM | Kd ([1]; read-out: Kd): 5 µM
SMILES: COC(=O)c1ccc2nccnc2c1 [Compound 19]

Kd [1, 6]: 33 µM
SMILES: Cc1ccc2nccnc2c1 [Compound 20]

Kd [1, 6]: 379 µM
SMILES: Nc1cnc2ccccc2n1 [Compound 24]

Kd [1, 6]: 600 µM
SMILES: NC(=O)c1cnc2ccccc2n1 [Compound 25]

Effect of modification on RNA binding affinity (FIG. 5) [1]: negative modification
SMILES: O=C(CCC(=O)Nc1ccc2nccnc2c1)NO [Compound 35]

Effect of modification on RNA binding affinity (FIG. 5) [1]: increase RNA binding affinity
SMILES: O=C(CCNc1ccc2nccnc2c1)NO [Compound 36]
Binding affinity relative to a named comparator compound [1]: fivefold higher binding affinity than the amide-linked version; also recorded: affinity similar to that of the parent fragment 17

Kd ([1]; read-out: Kd (affinity)): 0.625 µM | Effect of modification on RNA binding affinity (FIG. 5) [1]: increase RNA binding affinity
SMILES: c1cc(N2CCCCC2)c(NCc2ccc3nccnc3c2)cn1 [Compound 37]

Binding affinity relative to a named comparator compound [1]: reduced affinity relative to compound 37 | Effect of modification on RNA binding affinity (FIG. 5) [1]: neutral modifications
SMILES: CN(C)CCNCc1ccc2nccnc2c1 [Compound 38]

Binding affinity relative to a named comparator compound [1]: reduces affinity relative to compound 37 | Effect of modification on RNA binding affinity (FIG. 5) [1]: negative modification
SMILES: c1cc(N2CCNCC2)c(CNCc2ccc3nccnc3c2)cn1 [Compound 39]

Binding affinity relative to a named comparator compound [1]: reduces affinity relative to compound 37 | Effect of modification on RNA binding affinity (FIG. 5) [1]: negative modification
SMILES: c1cnc2cc(CNc3cncc(N4CCNCC4)c3)ccc2n1 [Compound 40]

Kd [1, 9]: 440 µM
SMILES: COC(=O)c1ccc(Br)cc1 [compound 85]

Kd [1, 9]: 1800 µM
SMILES: CCOc1ccc(C(=O)OC)cc1 [compound 87]

Kd (μM) [1, 10]: no binding
SMILES: COC(=O)c1ccc(C(F)(F)F)cc1 [compound 89]

Kd (μM) [1, 10]: no binding
SMILES: COC(=O)c1ccc(Oc2ccccc2)cc1 [compound 810]

Kd [1, 9]: 820 µM
SMILES: COC(=O)c1ccc(Cl)c(Cl)c1 [compound 811]

Kd [1, 9]: 600 µM
SMILES: CCOC(=O)c1ccc(Cl)cc1 [compound 813]

Kd [1, 9]: 1300 µM
SMILES: OCc1ccc(Cl)cc1 [compound 814]

Kd [1, 9]: 1800 µM
SMILES: NC(=O)c1ccc(Cl)cc1 [compound 815]

Kd [1, 9]: 1300 µM
SMILES: NS(=O)(=O)c1ccc(Cl)cc1 [compound 816]

Kd (μM) [1, 10]: no binding
SMILES: CCS(=O)(=O)c1ccc(Cl)cc1 [compound 817]
